Measured values as given in patent US9403873B2, “Peptides targeting receptor activator of nuclear factor-κB (RANK) and their applications” (UNIVERSITE DE NANTES, priority 2011, dated 2016).
Entries after “also recorded” stand apart in the source; their conditions may differ. Ends that are not written are not given here.

Key:
hRANK = biological target: T1, hRANK (Homo sapiens, UniProt Q9Y6Q6); assay: Surface plasmon resonance (Biacore) binding to immobilized RANK-Fc; conditions: SPR, 1:1 Langmuir model
T1 construct: For NMR experiments with soluble RANK receptor-Fc (R&D Systems); purchased R&D Systems
T1 sequence (Q9Y6Q6 30-212 limits assumed): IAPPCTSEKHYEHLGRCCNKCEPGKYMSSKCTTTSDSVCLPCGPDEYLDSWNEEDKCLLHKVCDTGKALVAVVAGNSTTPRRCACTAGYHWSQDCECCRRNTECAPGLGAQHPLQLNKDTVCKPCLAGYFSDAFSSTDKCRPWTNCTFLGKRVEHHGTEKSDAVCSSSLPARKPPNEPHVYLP
Protocol: Biosensor experiments were carried out on a BIAcore 3000 instrument (BIAcore) as published previously (Baud′Huin et al. 2009). Recombinant purified RANKL (2 μg/mL in 5 mM maleate, pH 5.75) or RANK-Fc carrier-free (5 μg/mL in sodium acetate buffer, pH 5.0) were covalently immobilized to the dextran matrix of a CM5 sensor chip (BIAcore) at a flow rate of 5 μL/min. Immobilization levels ranging from 400 to 3000 Response Units (RU) for RANKL or 5000 RU for RANK were obtained. Binding assays were performed at 25° C. in 10 mM Hepes buffer, pH 7.4. The association phase was 180 seconds followed by a dissociation phase in the same buffer. Polypeptides binding studies to RANK or RANKL were determined using single cycle kinetics, starting with 100 μM of the polypeptide of interest followed by 2-fold serial dilutions (ranging from 100 to 0.78 μM). The sensorgrams were fitted to calculate the equilibrium-dissociation constants using the Langmuir 1:1 model with BiaEval 4.1 software (BIAcore). RANK-Fc CF, RANKL and OPG carrier-free were obtained from R&D Systems (Minneapolis, Minn., USA).

murine CD11b+ cells = assay type: cell-based, mouse
Text: Human peripheral blood mononuclear cells (PBMCs) were isolated by centrifugation over Ficoll gradient (Sigma, Saint Quentin Fallavier, France). CD14^+ cells were magnetically labeled with CD14 Microbeads and positively selected by MACS technology (Miltenyi Biotec, Paris, France) as described previously (Duplomb et al. 2008). CD11b^+ monocytes were purified from murine bone marrow cells obtained by flushing the bone marrow from femora and tibiae of 4-week-old C57BL6 male mice, using MACS microbeads (Baud'huin et al. 2010). The purity of cell preparations was around 96%, as controlled by flow cytometry. Generation of osteoclasts from human CD14^+ and murine CD11b^+ monocytes was performed as described previously (Duplomb et al. 2008, Baud′huin et al. 2010). Briefly, purified cells were cultured in α-minimum essential medium (α-MEM, Gibco/Invitrogen, USA) with 10% fetal calf serum and 25 ng/mL human/murine macrophage colony-stimulating factor (M-CSF, R&D Systems, Abindgton, UK). After 3 days of culture, cell medium was replaced by fresh medium containing M-CSF and recombinant human RANKL (100 ng/mL, R&D system), supplemented with or without a polypeptide of interest (0.5-100 μM) or 50 ng/mL human OPG (R&D Systems) used as a reference inhibitor. Soluble cytokines, receptor and polypeptides were renewed every 3 days until multinucleated osteoclasts had formed. After 12 days of culture for CD14^+ cells and 15 days for CD11b^+ cells, osteoclasts were visualized by TRAP staining (Sigma, France) and cells formed with three or more nuclei were manually counted and analyzed statistically.

[1] = system: ovariectomized C57BL/6 mice; assay: Toxicity in ovariectomized mice (body weight, organ histology); assay type: in vivo, mouse; conditions: 10 mg/kg/day
Protocol: During the experimental period, the body weight of the mice was monitored. […] After treatment for five weeks, mice were anesthetized with isoflurane (2%, 1 L/min) and sacrificed by cervical dislocation. Lumbar vertebrae and tibiae were collected for micro-CT analysis and stored at 4° C. in 4% paraformaldehyde until further analysis. Additionally, internal organs (heart, liver, lungs, kidneys, spleen, intestines and thymus) of some mice (n=3 per group) were harvested and stored for toxicity screening.
After sacrifice, organs were conserved and fixed in 4% PFA at 4° C., and embedded in paraffin. Sections (4 μm) were cut and stained with hematoxylin and eosin (Lamoureux et al. 2009, Baud′Huin et al. 2010). General morphology of organs was evaluated on each section using a DMRXA microscope (Leica, Nussloch, Germany).

Sequence: NVLKLCSGE [Pep8, NVLKLCSGE]
- kon (hRANK; read-out: association rate constant (kon)): 495 M⁻¹ s⁻¹
- koff (hRANK; read-out: dissociation rate constant (koff)): 0.0052 s⁻¹
- IC50 (murine CD11b+ cells): 30 µM
- IC50 of osteoclast formation (murine CD11b+ cells): 29 µg/mL
- number of TRAP-positive multinucleated cells, % of the number formed without the polypeptide (murine CD11b+ cells; 100 μM, murine cultures): 28%
- histopathological evaluation of major organs ([1]; 5 weeks, heart, lungs, liver, kidneys, spleen, skin): No histomorphological difference; also recorded: no toxic effects
- effect on body weight in OVX mice ([1]; 35 days): no effect
